Measurements as given in US9034391B2, “Compositions with enhanced bioavailability and fast acting inhibitor or gastric acid secretion” (YALE UNIVERSITY, priority 2006, dated 2015).
Where “and” joins values, the source holds several entries; their conditions need not be identical. Equal values may be shown once. Entries after “also recorded” stand apart in the source; their conditions may differ.

How the values were obtained:
fundic H+,K+-ATPase = molecular target: T1, fundic H+,K+-ATPase (Rattus norvegicus, UniProt P09626); experiment: Intracellular pH recovery in isolated rat fundic (F1) glands; assay type: cell-based; conditions: for effect on fundic (F1) acid secretion (in words): histamine 100 μM
T1 construct: Glands adjacent to the esophageal junction were hand dissected; from tissue; host or cells: hand-dissected fundic glands of Sprague Dawley rat stomach, next to the esophageal junction
Description: Male Sprague Dawley rats weighing 200-300 g were housed in climate and humidity controlled, light cycled rooms and fed standard chow with free access to water. Prior to experiments, animals were fasted while allowing free access to water for 18-24 hours to reduce basal acid secretion. Following isoflurane anesthesia the animals were sacrificed, an abdominal incision was made exposing the stomach. After isolating the esophagus and duodenal junctures a total gastrectomy was performed with 1-2 cm of esophagus remaining attached to the gastrectomy. We included the esophageal juncture to have a common landmark for all fundic isolations. While holding the esophagus with forceps approximately 3 mm of fundus was removed with 5 mm of the intact esophagus.
The removed fundic tissue was placed in ice cold HEPES-buffered Ringer-solution (pH adjusted to 7.4 at 4° C.) and transferred to the stage of a dissection microscope. The fundic glands were visualized under the microscope at 50× magnification. Glands adjacent to the esophageal junction were hand dissected. […]
Using the same protocol that we developed for isolated corpus gland perfusion^20a, 21a individual fundic glands were loaded with a […] of the pH sensitive dye (BCECF, (2′7-bis(2-carbocyethal)-5-(and 6)-carboxyflurorescein-acetomethylester; Molecular Probes, OR USA)) for 15 minutes. […] Acid extrusion was monitored in the absence of bicarbonate. […] Intracellular pH recovery rates (H^+, K^+-ATPase activity) were measured in Na^+ free HEPES solutions containing: 1) 100 μM histamine 2) 100 μM pentagastrin. […]
The recovery rates are expressed as the ΔpHi/min, and were calculated over the pH range of 6.5-6.9.
Activation of acid secretion via histamine, acetylcholine or pentagastrin was induced by preincubation of the glands for 15 min before the experiment combined with BCECF (100 μM) loading. All data are summarized as mean±S.E. Significance was determined using the one-way ANOVA test with p<0.05 considered to be statistically significant. […]

H+,K+-ATPase [1] = molecular target: T2, H+,K+-ATPase (Rattus norvegicus, UniProt P09626); experiment: Intracellular pH recovery in rat corpus glands (fundus/corpus comparison); assay type: cell-based; conditions: corpus glands
T2 construct: Individual glands were isolated using a hand-dissection technique as described previously; from tissue; host or cells: hand-dissected rat gastric glands (corpus and antrum), parietal cells
Description: Molecular Probes, OR USA)) for 15 minutes. […] Measurements were performed in the epifluorescence mode with 60×/0.80 and 40×/0.90 objectives. […] Data points were acquired every 15 s. […] Acid extrusion was monitored in the absence of bicarbonate. […] All data are summarized as mean±S.E. Significance was determined using the one-way ANOVA test with p<0.05 considered to be statistically significant. All chemicals used were obtained from Sigma and Molecular Probes.

H+,K+-ATPase [2] = molecular target: T2, H+,K+-ATPase; experiment: Intracellular pH recovery (BCECF, NH4Cl prepulse) in isolated rat gastric glands; assay type: cell-based
Source text: Following removal of the stomach, the stomach was opened longitudinally and the corpus and antrum isolated and sliced into 0.5 cm square sections, and washed with cold Ringer solution to remove residual food particles. The tissues were transferred to the stage of a dissecting microscope. Individual glands were isolated using a hand-dissection technique as described previously^36. Following isolation, individual isolated glands were allowed to adhere to cover slips that had been pre-coated with Cell-Tak (Collaborative Research, Bedford, Mass.) and were transferred to the stage of an inverted microscope.
Isolated gastric glands were incubated in a HEPES-buffered Ringer's solution containing either 10 μmol of the pH-sensitive dye BCECF-AM (2′,7′)-bis-(2-carboxyethyl)-5-(and -6)-carboxy-fluorescin, aceto-methyl ester (Molecular Probes, Eugene, Oreg.) for 10 minutes as described previously^37-39. […] A minimum of 8 cells or regions was selected per gland.
Proton extrusion by individual parietal cells was monitored by observing recovery of pHi after acid loading the cells with Na^+ free HEPES solution containing 20 mM NH4C1.
The recovery rates are expressed as the ΔpH/min, and were calculated over the pH range of 6.5-6.8.

[3] = system: gastric acid secretion in freshly isolated rat whole stomach; experiment: Whole stomach pH measurements, ex vivo rat whole stomach preparation
Description: Before the experiments animals were fasted for 24 h to reduce basal acid secretion to a consistent minimum. Animals were killed with an overdose of isoflurane and an abdominal incision was made. The stomach was ligated at the duodenal and esophageal junction and excised. Then 1 ml of non buffered, isotonic saline (140 mM) was infused into the lumen of the stomach. […] The stomachs were then placed in either oxygenated HEPES-buffered Ringer solution or in the same solution containing 100 μM histamine alone or additionally 300 μM ZnCl2 (pH 7.4) and maintained at 37° C. After 1 hour the stomach contents were aspirated and the pH was recorded.

[4] = system: histamine induced acid secretion; experiment: Oral zinc supplementation in rats, histamine induced proton extrusion of isolated glands; assay type: in vivo, rat
Source text: Following dye-loading the chamber was flushed with a HEPES solution to remove all non-de-esterified dye. The perfusion chamber was mounted on the stage of an inverted microscope (Olympus IX50), which was used in the epifluorescence mode with a 40× objective. BCECF was successively excited at 440 nm and 490 nm from a monochromator light source, and the resultant fluorescent signal was monitored at 535 nm using an intensified charge-coupled device camera. Individual regions of interest were outlined and simultaneously monitored every 15 sec. during the course of the experiment. A minimum of 8 cells or regions was selected per gland.
Proton extrusion by individual parietal cells was monitored by observing recovery of pHi after acid loading the cells with Na^+ free HEPES solution containing 20 mM NH4C1. Parietal cells were subsequently superfused with Na^+ free HEPES, which abolished all Na^+/H^+ Exchanger (NHE) activity, trapping H^+ within the cytosol and initiating an immediate drop in pHi. Under these conditions, the only potential H^+ extrusion pathway is via the H^+,K^+-ATPase activation.
The intensity ratio data (490/440) were converted to pH values using the high K^+/nigericin calibration technique^40. Intracellular pH recovery rates were calculated from the same initial starting pH to eliminate the potential variation in the individual intracellular buffering power of the cells under the different experimental conditions. All data including the individual images for all wavelengths were recorded to the hard disk which allowed us to return to the individual images after the experiment for further analysis. The recovery rates are expressed as the ΔpH/min, and were calculated over the pH range of 6.5-6.8. All chemicals were obtained from Sigma and Molecular Probes. All data were summarized as means±SE and were analysed by grouping measurements at baseline values.

H+,K+-ATPase [5] = molecular target: H+,K+-ATPase (Homo sapiens, UniProt P20648); conditions: human gastric glands
Chain of H+,K+-ATPase (Homo sapiens, UniProt P20648) (P20648 whole entry): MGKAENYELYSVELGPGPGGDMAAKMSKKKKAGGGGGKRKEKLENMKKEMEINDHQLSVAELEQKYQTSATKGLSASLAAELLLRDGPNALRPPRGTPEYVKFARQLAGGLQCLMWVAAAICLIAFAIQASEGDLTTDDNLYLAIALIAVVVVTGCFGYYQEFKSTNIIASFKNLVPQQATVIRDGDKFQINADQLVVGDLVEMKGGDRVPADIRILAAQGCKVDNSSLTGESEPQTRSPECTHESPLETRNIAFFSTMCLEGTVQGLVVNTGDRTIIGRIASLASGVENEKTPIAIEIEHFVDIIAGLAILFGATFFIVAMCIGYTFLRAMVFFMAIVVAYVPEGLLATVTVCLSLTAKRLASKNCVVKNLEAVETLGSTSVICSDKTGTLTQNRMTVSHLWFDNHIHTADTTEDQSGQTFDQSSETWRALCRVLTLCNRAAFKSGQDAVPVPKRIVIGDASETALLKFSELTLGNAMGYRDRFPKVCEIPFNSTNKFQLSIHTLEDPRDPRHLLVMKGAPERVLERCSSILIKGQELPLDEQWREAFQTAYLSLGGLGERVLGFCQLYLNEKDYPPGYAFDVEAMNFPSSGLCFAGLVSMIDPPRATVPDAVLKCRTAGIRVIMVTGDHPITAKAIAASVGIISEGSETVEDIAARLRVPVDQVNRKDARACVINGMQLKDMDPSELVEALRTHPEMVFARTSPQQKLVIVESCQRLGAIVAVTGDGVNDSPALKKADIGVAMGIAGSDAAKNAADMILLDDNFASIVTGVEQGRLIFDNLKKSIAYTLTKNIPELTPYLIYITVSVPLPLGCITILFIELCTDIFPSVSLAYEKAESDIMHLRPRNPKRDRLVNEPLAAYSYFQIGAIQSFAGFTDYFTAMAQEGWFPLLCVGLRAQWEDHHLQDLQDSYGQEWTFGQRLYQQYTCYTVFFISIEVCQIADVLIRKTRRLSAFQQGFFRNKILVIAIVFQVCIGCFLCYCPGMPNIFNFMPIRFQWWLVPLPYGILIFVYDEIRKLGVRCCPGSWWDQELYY
Chain of H+,K+-ATPase (Homo sapiens, UniProt P20648) (P51164 whole entry partner): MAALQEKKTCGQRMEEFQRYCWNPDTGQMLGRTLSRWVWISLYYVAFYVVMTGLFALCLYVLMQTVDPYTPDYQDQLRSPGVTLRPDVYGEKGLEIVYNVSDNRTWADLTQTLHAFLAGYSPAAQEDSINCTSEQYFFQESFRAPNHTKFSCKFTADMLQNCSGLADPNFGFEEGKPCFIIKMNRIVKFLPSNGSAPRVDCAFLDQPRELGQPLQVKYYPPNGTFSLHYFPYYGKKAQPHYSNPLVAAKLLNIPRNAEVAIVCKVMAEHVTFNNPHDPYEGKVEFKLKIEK
Description: The human tissue was transferred from the OR in a HEPES-buffered Ringer solution. The tissue was stored on ice and immediately the isolated glands were dissected as described above.
Isolated gastric glands were incubated in a HEPES-buffered Ringer's solution containing either 10 μmol of the pH-sensitive dye BCECF-AM (2′,7′)-bis-(2-carboxyethyl)-5-(and -6)-carboxy-fluorescin, aceto-methyl ester (Molecular Probes, Eugene, Oreg.) for 10 minutes as described previously^37-39. Following dye-loading the chamber was flushed with a HEPES solution to remove all non-de-esterified dye. The perfusion chamber was mounted on the stage of an inverted microscope (Olympus IX50), which was used in the epifluorescence mode with a 40× objective. BCECF was successively excited at 440 nm and 490 nm from a monochromator light source, and the resultant fluorescent signal was monitored at 535 nm using an intensified charge-coupled device camera. Individual regions of interest were outlined and simultaneously monitored every 15 sec. during the course of the experiment. A minimum of 8 cells or regions was selected per gland.
Proton extrusion by individual parietal cells was monitored by observing recovery of pHi after acid loading the cells with Na^+ free HEPES solution containing 20 mM NH4C1. Parietal cells were subsequently superfused with Na^+ free HEPES, which abolished all Na^+/H^+ Exchanger (NHE) activity, trapping H^+ within the cytosol and initiating an immediate drop in pHi. […]
The intensity ratio data (490/440) were converted to pH values using the high K^+/nigericin calibration technique^40. Intracellular pH recovery rates were calculated from the same initial starting pH to eliminate the potential variation in the individual intracellular buffering power of the cells under the different experimental conditions. […] The recovery rates are expressed as the ΔpH/min, and were calculated over the pH range of 6.5-6.8. […] All data were summarized as means±SE and were analysed by grouping measurements at baseline values.

T2 sequence (P09626 whole entry): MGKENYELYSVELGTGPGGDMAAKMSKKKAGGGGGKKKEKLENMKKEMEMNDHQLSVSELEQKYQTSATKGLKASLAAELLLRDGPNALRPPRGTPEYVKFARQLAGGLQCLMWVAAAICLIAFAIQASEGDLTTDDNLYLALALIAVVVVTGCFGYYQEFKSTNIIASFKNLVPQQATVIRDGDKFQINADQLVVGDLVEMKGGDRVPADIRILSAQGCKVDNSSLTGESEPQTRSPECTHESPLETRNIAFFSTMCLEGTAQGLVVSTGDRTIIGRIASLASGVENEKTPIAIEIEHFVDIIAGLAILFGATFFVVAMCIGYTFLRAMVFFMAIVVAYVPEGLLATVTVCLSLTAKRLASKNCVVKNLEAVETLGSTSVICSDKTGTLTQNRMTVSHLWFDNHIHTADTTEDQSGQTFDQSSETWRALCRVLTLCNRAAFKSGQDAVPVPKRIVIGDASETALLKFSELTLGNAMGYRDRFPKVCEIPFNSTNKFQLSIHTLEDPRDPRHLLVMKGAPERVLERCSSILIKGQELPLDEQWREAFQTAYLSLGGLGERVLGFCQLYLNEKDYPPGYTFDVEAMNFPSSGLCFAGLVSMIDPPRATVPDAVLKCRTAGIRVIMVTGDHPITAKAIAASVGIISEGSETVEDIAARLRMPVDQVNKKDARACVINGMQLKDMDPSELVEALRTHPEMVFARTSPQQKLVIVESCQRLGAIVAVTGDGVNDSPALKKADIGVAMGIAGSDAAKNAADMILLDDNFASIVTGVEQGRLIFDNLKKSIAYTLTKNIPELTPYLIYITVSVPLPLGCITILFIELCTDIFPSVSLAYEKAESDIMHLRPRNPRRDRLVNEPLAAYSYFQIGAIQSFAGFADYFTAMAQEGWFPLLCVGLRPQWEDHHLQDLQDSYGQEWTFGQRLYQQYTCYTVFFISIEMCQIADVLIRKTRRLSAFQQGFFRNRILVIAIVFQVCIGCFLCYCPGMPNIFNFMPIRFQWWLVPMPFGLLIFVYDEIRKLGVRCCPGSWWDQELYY
T2 sequence (P18598 whole entry partner): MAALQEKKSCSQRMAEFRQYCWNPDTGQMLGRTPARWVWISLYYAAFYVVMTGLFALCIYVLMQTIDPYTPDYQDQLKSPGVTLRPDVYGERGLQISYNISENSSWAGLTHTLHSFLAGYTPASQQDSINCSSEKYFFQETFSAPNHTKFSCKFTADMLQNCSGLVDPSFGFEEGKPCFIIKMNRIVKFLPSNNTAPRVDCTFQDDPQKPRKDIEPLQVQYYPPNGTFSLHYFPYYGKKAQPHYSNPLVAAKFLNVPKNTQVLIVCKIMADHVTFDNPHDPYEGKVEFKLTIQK
T1 sequence (P09626 whole entry): as the sequence (P09626 whole entry) above
T1 sequence (P18598 whole entry partner): as the sequence (P18598 whole entry partner) above

## Cc1cccc(C)c1CNc1cc(C(=O)NCCO)cn2c(C)c(C)nc12 [AZD0865]
Fundic H+,K+-ATPase
  effect on fundic (F1) acid secretion (in words): does not completely inhibit proton extrusion
H+,K+-ATPase [1]
  effect on corpus acid secretion (in words): effectively inhibits acid secretion

## [Cl-].[Cl-].[Zn+2] [ZnCl2, zinc chloride]
H+,K+-ATPase [2]; 300 μM ZnCl2, compared to the histamine (100 μM) induced rate
  inhibition of proton extrusion: 98%
H+,K+-ATPase [2]; ZnCl2 300 μM added to superfusion bath during alkalinization, histamine 100 μM
  onset of inhibition of histamine induced acid secretion: a few seconds
H+,K+-ATPase [2]; ZnCl2 300 μM, histamine 100 μM
  reversibility of inhibition after removal of ZnCl2: increase of the intracellular pH continued; also recorded: returns to normal levels
H+,K+-ATPase [2]; rat gastric glands, histamine 100 μM, ZnCl2 25-300 μM
  effect on histamine induced acid secretion (in words): blocked; also recorded: dose dependent manner
[3]; 100 μM histamine and 300 μM ZnCl2, 1 hour
  luminal pH: 4.54±0.065
[3]; 100 μmol histamine and 300 μmol ZnCl2
  luminal pH compared with histamine alone (in words): higher pH
[4]; 0.05 mg/kg/d ZnCl2 in drinking water for 5 days
  histamine induced proton extrusion rate after oral ZnCl2: 0.034±0.0036 ΔpH/min
[4]; 150 mg/kg/d ZnCl2 in drinking water for 5 days
  histamine induced proton extrusion rate after oral ZnCl2: 0.022±0.0045 ΔpH/min
H+,K+-ATPase [5]; histamine 100 μM, ZnCl2 300 μM
  effect on histamine stimulated proton efflux (in words): blocked; also recorded: abolished

## NCCc1c[nH]cn1 [histamine]
[4]; control group with histamine alone, no ZnCl2
  recovery rate (proton extrusion) of histamine stimulated parietal cells: 0.051±0.004 ΔpH/min
Fundic H+,K+-ATPase; 100 μM secretagogue alone
  F1 gland alkalinization rate: 0.042±0.007 ΔpHi/min and 0.040±0.0079 ΔpHi/min
Fundic H+,K+-ATPase
  effect on fundic (F1) acid secretion (in words): no effect
H+,K+-ATPase [5]; histamine alone
  proton efflux under histamine stimulation (in words): robust proton efflux
